Assay results: patent publication US7018457B2, “Azo metal-complexed dyes, ink jet ink compositions and ink jet printing methods” (Polaroid Corporation, priority 2002, dated 2006)

Legend:
Assay type in all cases: physicochemical
[1] = Light stability of dye coatings on receiver papers, Xenon arc at 10,000 ft. candles; conditions: for % Density Loss (Y) after 5 Day Xe Arc, Epson / % Density Loss (Y) after 5 Day Xe Arc, Kodak / % Density Loss (Y) after 5 Day Xe Arc, Watercolor: 5 days
Method: (§1) Experiments were carried out with Kodak® Premium Glossy Paper (available from Eastman Kodak Company, Rochester, N.Y.), Epson Premium Glossy Photo Paper (available from Epson Corporation) and Somerset Radiant White watercolor paper (a 100% cotton fiber paper with little or no sizing).
(§2) The dye samples were prepared by initially making a concentrated ink jet fluid (Fluid A) with 35.2% 1,5-pentanediol, 24.8% 2-pyrollidinone, 20% trimethylolpropane and 20% water (by weight). Two parts by weight of Fluid A were diluted with eight parts of water to form Fluid B consisting of approximately 7% 1,5-pentanediol, 5% 2-pyrollidinone, 4% trimethylolpropane and 84% water.
(§3) The test fluids were prepared by dissolving approximately 20 mg of dye with heating and vortex stirring into 1 gram of Fluid B. Once a clear fluid was obtained, the fluid was coated on the ink jet receiver material with a #4 Meyer rod. The coating was dried and the reflection density was measured. When the density was not in the range of from 0.7 to 1.3 the test fluid was diluted with additional Fluid B and the coatings repeated until the reflection density was in the range specified above.
(§4) Samples of the dyes were applied to the papers in a thin film as described above, air dried and the sample exposed in a Xenon arc at 10,000 ft. candles and also to cool white fluorescent bulbs with an irradiance of 2,500 ft. candles.
This example illustrates the light stability of the dyes of formulas V–XV in xenon arc testing. The tests were carried out as described in Example II.
The ozone tests were conducted in an ozone chamber constructed from a large Pyrex jar having a volume of approximately 1.2 ft.^3 and a low temperature mercury-argon lamp (Oriel 6035). Ozone was produced in situ by the direct photolysis of oxygen in the ambient air within the chamber. A fan in the chamber ensured that all the samples were uniformly exposed to the ozone. The lamp power supply was energized under the control of a timer such that the lamp was on for 15 minutes every two hours thereby producing an average ozone concentration of about 10 PPM (24 mg/m^3). The test was carried out for 16 hours, or 8 lamp cycles. The ozone tests were carried out on Epson paper. The light stability experiments were carried out for 5 days at […] on Kodak Glossy Paper.

[2] = Light stability of dye coatings on receiver papers, cool white fluorescent bulbs at 2,500 ft. candles; conditions: cool white fluorescent 2,500 ft. candles
Method: as §1, §2, §3, §4

[3] = Ozone stability of dye coatings in an ozone chamber; conditions: Epson paper; about 10 PPM ozone; 16 hours, 8 lamp cycles

## Cc1nn(-c2ccc(S(=O)(=O)[O-])cc2)c(O)c1N=Nc1ccc(S(=O)(=O)[O-])cc1C(=O)[O-].[Na+].[Na+].[Na+] [Control, 2-[5-hydroxy-3-methyl-1-(4-sulfophenyl)-1H-pyrazol-4-ylazo]-5-sulfobenzoic acid sodium salt]
[1]; Epson Premium Glossy Photo Paper, Xenon arc 10,000 ft. candles
  % Density Loss (Y) after 5 Day Xe Arc, Epson: −7%
[1]; Kodak Glossy Paper, 5 days at 10,00 ft. candles
  % Loss in Density, Light: −90%
[1]; Kodak Premium Glossy Paper, Xenon arc 10,000 ft. candles
  % Density Loss (Y) after 5 Day Xe Arc, Kodak: −85%
[1]; Somerset Radiant White watercolor paper, Xenon arc 10,000 ft. candles
  % Density Loss (Y) after 5 Day Xe Arc, Watercolor: −23%
[2]; Epson paper
  % Density Loss after 3 weeks under fluorescent light, Epson: 1%
[2]; Kodak paper
  % Density Loss after 3 weeks under fluorescent light, Kodak: −51%
[2]; watercolor paper
  % Density Loss after 3 weeks under fluorescent light, Watercolor: −7%
[3]
  % Loss in Density, Ozone: −29%

## Cc1nn(-c2ccc(S(=O)(=O)[O-])cc2)c2c1N=Nc1ccc(S(=O)(=O)[O-])cc1C(=O)[O][Co][O]2.O.[Na+].[Na+] [VI]
[1]; Table IV, Epson paper, Xenon arc as in Example II
  % Density Loss (Y) after 5 Day Xe Arc, Epson: 17%
[1]; Table IV, Kodak paper, Xenon arc as in Example II
  % Density Loss (Y) after 5 Day Xe Arc, Kodak: −52%
[1]; Table IV, watercolor paper, Xenon arc as in Example II
  % Density Loss (Y) after 5 Day Xe Arc, Watercolor: −19%
